Reference: PubChem BioAssay AID624395 (The Scripps Research Institute Molecular Screening Center, 2012)
The source made the active and inactive calls. The rule behind the calls is not given here.

Tested on: cell-based VP16 transactivation luciferase luminescence
Experiment: compounds lowering VP16-driven reporter luminescence – cell-based, counter-screen for NR2E3 agonist project, dose response (AID 624395)

Row | Compound | IC50
1 | CCCCC[C@@H]1C=C(C(=O)O)[C@H](c2ccc(Cl)c(Cl)c2)N1S(=O)(=O)c1ccc(C)cc1 | 8.77 µM
2 | Cc1sc(NC(=O)/C=C/c2ccc3c(c2)OCO3)nc1-c1ccccc1 | 7.11 µM
3 | COCCCNC(=S)N1CCN(c2nc(-c3ccc(Cl)cc3)cs2)CC1 | 10.6 µM (inactive)
4 | O=[N+]([O-])c1ccc(NC(=S)NCCc2ccc(F)cc2)cc1 | 5.02 µM
5 | CSC(=Nc1ccccc1)N=C(SCc1ccccc1)N(C)C | 4.06 µM
6 | Cc1cc(C)cc(NC(=O)CCc2nc3sc4c(c3c(=O)[nH]2)CCCC4)c1 | > 39.8 µM (inactive)
7 | c1coc(CNc2ncnc3ccccc23)c1 | 4.45 µM
